The source of these data is ChEMBL document CHEMBL4382207, “Computer-aided drug discovery of Myc-Max inhibitors as potential therapeutics for prostate cancer” (Eur J Med Chem, 2018).

Activity calls are given as the source filed them. The rule behind the calls is not given here.

The target in one data set is T1, c-Myc/Max (Homo sapiens, UniProt P01106+P61244). Briefly: Inhibition of biotin-labeled EBOX oligonucleotide binding to GST-tagged Myc (368 to 454 residues)/His-tagged Max (23 to 102 residues) (unknown origin) expressed in Escherichia coli BL21(DE3) incubated up to 600 secs by biolayer interferometry assay.
T1 sequence (P01106 whole entry, the tested form may be a part): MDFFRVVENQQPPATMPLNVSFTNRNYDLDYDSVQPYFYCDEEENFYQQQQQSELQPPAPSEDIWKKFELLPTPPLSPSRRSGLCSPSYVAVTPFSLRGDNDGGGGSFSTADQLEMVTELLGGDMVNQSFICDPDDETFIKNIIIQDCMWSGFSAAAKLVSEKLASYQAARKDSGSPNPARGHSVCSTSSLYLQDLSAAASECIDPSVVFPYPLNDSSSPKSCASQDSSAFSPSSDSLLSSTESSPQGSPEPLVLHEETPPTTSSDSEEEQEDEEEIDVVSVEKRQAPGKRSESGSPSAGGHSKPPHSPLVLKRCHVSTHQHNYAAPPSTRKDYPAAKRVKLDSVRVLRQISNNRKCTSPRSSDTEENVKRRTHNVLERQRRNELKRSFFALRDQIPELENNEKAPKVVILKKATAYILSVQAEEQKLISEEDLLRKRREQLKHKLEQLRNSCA
T1 sequence (P61244 whole entry, the tested form may be a part): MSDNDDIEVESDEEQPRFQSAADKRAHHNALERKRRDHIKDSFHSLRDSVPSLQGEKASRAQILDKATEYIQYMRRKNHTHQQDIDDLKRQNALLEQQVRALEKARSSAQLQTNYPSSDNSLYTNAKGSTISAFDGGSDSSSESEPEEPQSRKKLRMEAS
Conditions: not given
(In BLI a coated tip is dipped into the sample, and binding shifts an interference pattern.)
The inhibition is the relative decrease from the control value, in per cent. As to `FC(F)(F)c1cc(NC(=S)NCc2ccccc2)cc(C(F)(F)F)c1`, the inhibition entry is “Dose-dependent effect”.

Another data set relates to LNCaP. The data set is described as follows: Cytotoxicity against human LNCAP cells assessed as reduction in cell viability at 3 uM after 96 hrs by prestoblue assay relative to control. The class given is functional.
Conditions: not given
Consider `FC(F)(F)c1cc(NC(=S)NCc2ccccc2)cc(C(F)(F)F)c1`, for which the inhibition at 3 µM stood at 70%.

The target of a further data set is T1, c-Myc/Max. The data set is described as follows: Inhibition of Myc-Max (unknown origin) expressed in human 22rv1 cells harboring UBE2C promoter assessed as reduction in ARV7 level after 1 day by luciferase reporter gene assay. Type of data set: cell-based.
Conditions: not given
For `O=C1/C(=C/c2cccs2)SC(=S)N1c1cccc(O)c1`, the inhibition result is “Dose-dependent effect”.
For the compound `O=C(CN1C(=O)NC2(CCCC2)C1=O)Nc1cccc(C(F)(F)F)c1`, the inhibition entry is “Dose-dependent effect”.
For the compound `CC(C)(C)[C@H]1CCc2sc(C(=O)N3CCC(C(N)=O)CC3)cc2C1`, the inhibition result was “Dose-dependent effect”.
The same measure, in the same setting: the same measure for `CS(=O)(=O)Nc1ccccc1C(=O)OCc1cc(=O)oc2cc(O)ccc12`: “Dose-dependent effect”; for `O=[N+]([O-])c1ccc(Nc2ccccc2-c2ccccc2)c2nonc12`: “Dose-dependent effect”.
As for `FC(F)(F)c1cc(NC(=S)NCc2ccccc2)cc(C(F)(F)F)c1`, the inhibition entry is “Dose-dependent effect”.
Same read-out and setting: the same measure for `CCc1ccc(/C=C2\SC(=S)NC2=O)cc1`: “Dose-dependent effect”; for `CC(=O)Nc1ccc(Nc2cc(Cl)c(C(F)(F)F)cc2[N+](=O)[O-])cc1`: “Dose-dependent effect”; for `S=C(NCc1ccc(Cl)c(Cl)c1)Nc1cccnc1`: “Dose-dependent effect”.
`O=C1NC(=S)S/C1=C\c1ccccc1C(F)(F)F`: the inhibition entry was “Dose-dependent effect”.
The same measure, in the same setting: in the case of `NC(=O)c1ccsc1NC(=O)Nc1cccc(C(F)(F)F)c1` it was “Dose-dependent effect”.
As to `CN1C(=O)/C(=C\C=C\c2ccco2)SC1=S`, the inhibition result was “Dose-dependent effect”.

The target in the next data set is T1, c-Myc/Max. The data set is described as follows: Inhibition of biotin-labeled EBOX oligonucleotide binding to GST-tagged Myc (368 to 454 residues)/His-tagged Max (23 to 102 residues) (unknown origin) expressed in Escherichia coli BL21(DE3) at 500 uM incubated up to 600 secs by biolayer interferometry assay.
Conditions: not given
As to `O=[N+]([O-])c1ccc(Nc2ccccc2-c2ccccc2)c2nonc12`, the inhibition entry was “Active”.
Regarding `FC(F)(F)c1cc(NC(=S)NCc2ccccc2)cc(C(F)(F)F)c1`, the inhibition result is “Active”.
With `O=C1NC(=S)S/C1=C\c1ccccc1C(F)(F)F`, the inhibition entry was “Active”.

The target of another data set is T1, c-Myc/Max. Briefly: Inhibition of Myc-Max (unknown origin) expressed in human 22rv1 cells harboring UBE2C promoter assessed as reduction in ARV7 level at 12.5 to 25 uM after 48 hrs by Western blot analysis. The class given is cell-based.
Conditions: not given
With `O=[N+]([O-])c1ccc(Nc2ccccc2-c2ccccc2)c2nonc12`, the inhibition entry is “Active”.
Same read-out and setting: in the case of `FC(F)(F)c1cc(NC(=S)NCc2ccccc2)cc(C(F)(F)F)c1` it was “Active”; in that of `O=C1NC(=S)S/C1=C\c1ccccc1C(F)(F)F`, “Active”.

In another data set the target is T1, c-Myc/Max. The data set is described as follows: Inhibition of Myc-Max (unknown origin) expressed in human LNCAP cells assessed as reduction in transcriptional activity at 25 uM after 1 day by luciferase reporter gene assay relative to control.
Conditions: not given
Type of data set: cell-based. In general terms: In a reporter assay the amount or activity of a reporter protein is the signal.
As for `O=C1/C(=C/c2cccs2)SC(=S)N1c1cccc(O)c1`, the inhibition was determined as 65%.
On the same count and under the same terms, the same measure for `O=C(CN1C(=O)NC2(CCCC2)C1=O)Nc1cccc(C(F)(F)F)c1`: 65%; for `CC(C)(C)[C@H]1CCc2sc(C(=O)N3CCC(C(N)=O)CC3)cc2C1`: 73%; for `CS(=O)(=O)Nc1ccccc1C(=O)OCc1cc(=O)oc2cc(O)ccc12`: 53%.
In the case of `O=[N+]([O-])c1ccc(Nc2ccccc2-c2ccccc2)c2nonc12`, the inhibition was found to be 88%.
Still for that read-out and setting: the same measure for `FC(F)(F)c1cc(NC(=S)NCc2ccccc2)cc(C(F)(F)F)c1`: 106%; for `CCc1ccc(/C=C2\SC(=S)NC2=O)cc1`: 91%.
Still for that read-out and setting: the same measure for `CC(=O)Nc1ccc(Nc2cc(Cl)c(C(F)(F)F)cc2[N+](=O)[O-])cc1`: 81%.
With `S=C(NCc1ccc(Cl)c(Cl)c1)Nc1cccnc1`, the inhibition turned out to be 73%.
Same read-out and setting: the same measure for `O=C1NC(=S)S/C1=C\c1ccccc1C(F)(F)F`: 98%; for `NC(=O)c1ccsc1NC(=O)Nc1cccc(C(F)(F)F)c1`: 95%; for `CN1C(=O)/C(=C\C=C\c2ccco2)SC1=S`: 78%.

A further data set has as its target T1, c-Myc/Max. The data set is described as follows: Inhibition of full length Myc-Max (unknown origin) expressed in human PC3 cells at 12.5 to 25 uM after 24 hrs by luciferase reporter gene based mammalian two-hybrid assay. The class given is cell-based.
Conditions: not given
With `O=[N+]([O-])c1ccc(Nc2ccccc2-c2ccccc2)c2nonc12`, the inhibition entry is “inactive”.
Same read-out and setting: the same measure for `FC(F)(F)c1cc(NC(=S)NCc2ccccc2)cc(C(F)(F)F)c1`: “Active”.

The next data set concerns the target T1, c-Myc/Max. The data set is described as follows: Inhibition of Myc-Max (unknown origin) expressed in human LNCAP cells assessed as reduction in transcriptional activity after 1 day by luciferase reporter gene assay. Type of data set: cell-based.
Conditions: not given
Broadly, the IC50 is the concentration that gives 50% inhibition. With `FC(F)(F)c1cc(NC(=S)NCc2ccccc2)cc(C(F)(F)F)c1`, the IC50 was 8.9 µM.
On the same count and under the same terms, in the case of `O=C1NC(=S)S/C1=C\c1ccccc1C(F)(F)F` it was 22.7 µM.

System in a further data set: not listed separately
Briefly: Cytotoxicity against rat HO15.19 cells assessed as reduction in cell viability at 25 uM after 96 hrs by prestoblue assay relative to control. The class given is cell-based. The following applies: read-out: INH.
Consider `FC(F)(F)c1cc(NC(=S)NCc2ccccc2)cc(C(F)(F)F)c1`, for which the cytotoxicity at 96 h, 25 µM is at most 40%.

The target in another data set is T1, c-Myc/Max. Briefly: Inhibition of Myc-Max (unknown origin) expressed in human 22rv1 cells harboring UBE2C promoter assessed as reduction in ARV7 level at 25 uM after 1 day by luciferase reporter gene assay relative to control. Type of data set: cell-based.
Conditions: not given
As to `CC(C)(C)[C@H]1CCc2sc(C(=O)N3CCC(C(N)=O)CC3)cc2C1`, the inhibition came to 58%.
Turning to `FC(F)(F)c1cc(NC(=S)NCc2ccccc2)cc(C(F)(F)F)c1`, the inhibition came out at 94%.
Turning to `CCc1ccc(/C=C2\SC(=S)NC2=O)cc1`, the inhibition amounted to 70%.
On to `CC(=O)Nc1ccc(Nc2cc(Cl)c(C(F)(F)F)cc2[N+](=O)[O-])cc1`, for which the inhibition turned out to be 51%.
The same measure, in the same setting: the same measure for `S=C(NCc1ccc(Cl)c(Cl)c1)Nc1cccnc1`: 50%; for `O=C1NC(=S)S/C1=C\c1ccccc1C(F)(F)F`: 71%.
Same read-out and setting: in the case of `NC(=O)c1ccsc1NC(=O)Nc1cccc(C(F)(F)F)c1` it was 73%.
Consider `CN1C(=O)/C(=C\C=C\c2ccco2)SC1=S`, for which the inhibition was 64%.

A further data set relates to LNCaP. The data set is described as follows: Induction of apoptosis in human LNCAP cells assessed as increase in PARP cleavage at 6.25 to 25 uM after 48 hrs by Western blot analysis. Type of data set: functional, cell-based.
Conditions: not given
Background: Immunoblotting shows a protein as a band on a membrane.
Turning to `FC(F)(F)c1cc(NC(=S)NCc2ccccc2)cc(C(F)(F)F)c1`, the outcome was Active.
Still for that read-out and setting: in the case of `O=C1NC(=S)S/C1=C\c1ccccc1C(F)(F)F` it was “Active”.

The next data set deals with HO15.19. The data set is described as follows: Cytotoxicity against rat HO15.19 cells assessed as reduction in cell viability at 3 uM after 96 hrs by prestoblue assay. Type of data set: cell-based. The following applies: ho15.19, 96 h.
Turning to `FC(F)(F)c1cc(NC(=S)NCc2ccccc2)cc(C(F)(F)F)c1`, the Activity result is on record as “Non-Toxic”.

Another data set relates to LNCaP. The data set is described as follows: Cytotoxicity against human LNCAP cells assessed as reduction in cell viability after 96 hrs by prestoblue assay.
Conditions: not given
The class given is functional, cell-based.
As to `O=[N+]([O-])c1ccc(Nc2ccccc2-c2ccccc2)c2nonc12`, the IC50 came to 8.7 µM.
On the same count and under the same terms, the same measure for `FC(F)(F)c1cc(NC(=S)NCc2ccccc2)cc(C(F)(F)F)c1`: 2.5 µM; for `CCc1ccc(/C=C2\SC(=S)NC2=O)cc1`: 18.3 µM; for `O=C1NC(=S)S/C1=C\c1ccccc1C(F)(F)F`: 11.1 µM.
